Data published in paper PMC11726016 (Cancer Discovery, 2024).

What was measured:
[1] = tested on: DOHH-2 tumors; assay: DOHH-2 tumor study, AM-9747 vs LLY-283; assay type: in vivo, mouse; details: LLY-283 30 mg/kg, AM-9747 100 mg/kg PO QD
[2] = tested on: bone marrow progenitors and circulating blood cells; assay: Bone marrow progenitor populations and circulating blood cells; assay type: in vivo, mouse; details: DOHH-2 study; LLY-283 30 mg/kg, AM-9747 100 mg/kg PO QD
[3] = tested on: SDMA and γH2AX in bone marrow, blood and DOHH-2 tumor; assay: Pharmacodynamics and MOA in vivo assay; details: DOHH-2 study, Day 11; LLY-283 30 mg/kg, AM-9747 100 mg/kg PO QD
[4] = tested on: endogenous MTAP WT and MTAP-deleted cancer cell lines; assay: Viability in a panel of endogenous MTAP WT and MTAP-deleted cancer cells; assay type: cell-based, human; details: 6 days

Nc1ncnc2c1ccn2[C@@H]1O[C@H]([C@H](O)c2ccccc2)[C@@H](O)[C@H]1O [LLY-283]
tumor-free mice [1]: 2/10
circulating blood cells (RBC, reticulocytes, platelets) [2]: highly substantial reductions in red blood cells (RBC), reticulocytes, and platelets
megakaryocytic and erythroid progenitors (MEP) population in bone marrow [2]: substantial reduction
Blood SDMA decrease [3]: 79%
Bone marrow SDMA decrease [3]: 71%
Tumor SDMA decrease [3]: 21%
relation of MTAP status to sensitivity in the cell panel [4]: MTAP status did not track closely with sensitivity
